40 compounds from patent US9249147B2, “Tyrosine kinase inhibitors” (CHEMBRIDGE CORPORATION, priority 2008, dated 2016) can be followed below.

One test has as its target ALK (Homo sapiens, UniProt Q9UM73). As to the kind of experiment: ALK kinase assay (Kinase-Glo / AlphaScreen, purified NPM-ALK). Particulars: Table 1; read-out: ALK IC50. It counts as biochemical. On the set-up: fused to the complete intracytoplasmic portion of ALK containing the functional tyrosine kinase domain; 6xHis; made in house; host or cells: insect cells; the other entry of the earlier key: NPM1 (P06748, Nucleophosmin).

In the next test the target is T1, IGF1R (Homo sapiens, UniProt P08069).
T1 construct: 6×His- or GST-tagged kinase domain fragments of the corresponding RTKs expressed in baculovirus system; host or cells: baculovirus system
T1 sequence (P08069 999-1274 limits assumed): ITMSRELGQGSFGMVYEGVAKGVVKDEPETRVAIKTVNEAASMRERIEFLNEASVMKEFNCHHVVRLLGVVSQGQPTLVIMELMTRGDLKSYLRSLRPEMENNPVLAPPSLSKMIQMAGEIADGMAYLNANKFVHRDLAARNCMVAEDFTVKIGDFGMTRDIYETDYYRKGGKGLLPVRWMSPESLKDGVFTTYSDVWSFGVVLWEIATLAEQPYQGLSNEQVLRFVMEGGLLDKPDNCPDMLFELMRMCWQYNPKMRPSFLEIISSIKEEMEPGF
As to the kind of experiment: IGF1R kinase assay. It counts as biochemical. Particulars: Table 1; read-out: IGF1R IC50. As for the experimental part: To determine inhibition of several tyrosine kinases, such as IGF1R, InsR, Alk, TrkA and Jak2, kinase assays are conducted using either Kinase-Glo (Promega) or AlphaScreen (PerkinElmer) kinase assay platforms. The Kinase-Glo Luminescent Kinase Assay is a homogeneous method for measuring kinase activity by determining the amount of ATP remaining after a kinase reaction. The luminescent signal is proportional to the amount of ATP and inversely proportional to the amount of kinase activity. Tyrosine kinase PT66 AlphaScreen Assay is a high-sensitivity homogeneous, anti-phosphotyrosine antibody-mediated luminescent proximity method measuring incorporation of phosphate in synthetic poly(Glu-Tyr) substrate. The kinase preparations used consist of purified recombinant, 6×His- or GST-tagged kinase domain fragments of the corresponding RTKs expressed in baculovirus system.
Compounds with a range of concentrations 40 μM, 20 μM, 10 μM, 5 μM, 2.5 μM, 1.25 μM, 0.625 μM, 0.3125 μM, 0.15625 μM and 0.078125 μM were incubated with NPM-ALK, which was produced in insect cells as a 6×HIS-tagged fusion protein and purified using nickel-charged resin chromatography, for 30 minutes at RT in the presence of 10 μM ATP and 7.0 ng biotinylated poly-GT. A 1:1 mixture of […] and donor beads was then added to the reaction and incubated for an additional 60 minutes at RT. The assay was conducted on a MultiPROBE liquid handling workstation (PerkinElmer) in a 384-well plate format with a total reaction volume of 40 μL per well. Working stocks of all compounds were dissolved in 100% DMSO and serial dilutions of the compounds were performed using kinase buffer (50 mM Tris-HCl (pH 7.5), 5 mM MgCl2, 5 mM MnCl2, 2 mM DTT (added freshly before use), 0.01% Tween-20) containing 5% DMSO. […] Data were collected as optical readings at 520-680 nm on a Fusion™ microplate analyzer (PerkinElmer), and IC50 and Ki values calculated using PRISM3.0 software (GraphPad Software, Inc., San Diego, Calif.). The same assay was also used with minor modifications to assess the IC50 and Ki values for selected compounds against five other tyrosine kinases (IRK, IGF1R, Flt3, Abl, Src), all of which were purchased from commercial vendors. PolyGT-Biotin was bought from CIS Biointernational Cat. #61GT0BLD; ATP—from Sigma Cat. # A7699; sodium orthovanadate—from Sigma Cat. #S-6508; phosphotyrosine (PT66) assay kit from PerkinElmer Cat. #6760602M; automated workstation tips (20 μL): PerkinElmer Cat. #6000657; and OptiPlate-384 (white)—from PerkinElmer Cat. #6007299.

Chain of ALK (Q9UM73 with tags, fused parts or gaps): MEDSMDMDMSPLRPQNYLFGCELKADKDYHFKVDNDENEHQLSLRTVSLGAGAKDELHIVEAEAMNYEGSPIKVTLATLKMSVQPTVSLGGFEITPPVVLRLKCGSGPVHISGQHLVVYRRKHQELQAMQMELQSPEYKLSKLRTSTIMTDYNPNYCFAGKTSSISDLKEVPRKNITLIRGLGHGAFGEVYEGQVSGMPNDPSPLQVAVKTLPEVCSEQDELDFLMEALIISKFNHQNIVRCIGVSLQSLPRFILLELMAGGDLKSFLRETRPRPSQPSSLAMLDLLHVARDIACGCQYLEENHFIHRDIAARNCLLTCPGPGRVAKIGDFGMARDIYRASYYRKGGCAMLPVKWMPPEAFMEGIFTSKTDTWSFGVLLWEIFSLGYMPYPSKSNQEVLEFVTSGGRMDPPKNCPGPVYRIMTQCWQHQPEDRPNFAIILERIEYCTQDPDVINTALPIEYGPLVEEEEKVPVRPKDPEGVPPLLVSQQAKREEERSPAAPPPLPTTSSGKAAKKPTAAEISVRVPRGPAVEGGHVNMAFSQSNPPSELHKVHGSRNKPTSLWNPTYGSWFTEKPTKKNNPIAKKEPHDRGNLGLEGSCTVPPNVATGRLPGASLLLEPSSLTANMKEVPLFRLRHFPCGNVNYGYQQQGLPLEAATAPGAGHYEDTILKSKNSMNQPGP

`Cc1ccccc1C[C@H](C)Nc1cc[nH]c(=O)c1-c1nc2cc3c(cc2[nH]1)C(=O)N(CCN1CCCC1)C3=O`: the values for the IC50 on ALK and at IGF1R were 10 to 100 nM and over 1000 nM, respectively. The corresponding values for `Cc1c(F)cc(F)cc1C[C@H](C)Nc1cc[nH]c(=O)c1-c1nc2cc3c(cc2[nH]1)CN(CCN1CCCC1)C3=O` are over 1000 nM and 250 to 1000 nM. For `CC(Cc1cc2ccccc2s1)Nc1cc[nH]c(=O)c1-c1nc2cc3c(cc2[nH]1)C(=O)N(CCCN1CCCC1)C3` (centres unmarked) the same measures were over 1000 nM and over 1000 nM. The corresponding values for `C[C@H](CN(C)C)N1C(=O)c2cc3nc(-c4c(N[C@@H](C)Cc5sccc5Cl)cc[nH]c4=O)[nH]c3cc2C1=O` are 10 to 100 nM and over 1000 nM.

With `COc1ccc(-c2ccc(CC(C)Nc3cc[nH]c(=O)c3-c3nc4cc5c(cc4[nH]3)C(=O)N(CCCN3CCCC3)C5)s2)cc1` (centres unmarked), the half-inhibitory concentration (IC50) at ALK and at IGF1R was over 1000 nM throughout. Take `CCN1CCC[C@H]1CN1Cc2cc3nc(-c4c(N[C@@H](C)Cc5sccc5C)cc[nH]c4=O)[nH]c3cc2C1=O`: the values for the IC50 at ALK and at IGF1R were 10 to 100 nM and 100 to 250 nM, respectively. The corresponding values for `C[C@@H](Cc1sccc1Cl)Nc1cc[nH]c(=O)c1-c1nc2cc3c(cc2[nH]1)C(=O)N([C@@H](C)CN(C)C)C3=O` are 10 to 100 nM and over 1000 nM. For `Cc1c(C[C@H](C)Nc2cc[nH]c(=O)c2-c2nc3cc4c(cc3[nH]2)CN(CCN(C)C)C4=O)ccc(F)c1F` the same measures were over 1000 nM and over 1000 nM.

Take `C[C@@H](Cc1sccc1Cl)Nc1cc[nH]c(=O)c1-c1nc2cc3c(cc2[nH]1)C(=O)N(C[C@H](C)N(C)C)C3`: the IC50 at ALK was under 10 nM; at IGF1R it was 250 to 1000 nM.

With `COC[C@@H](Cc1ccccc1)Nc1cc[nH]c(=O)c1-c1nc2cc3c(cc2[nH]1)C(=O)N(C1CCN(C)CC1)C3=O`, at ALK, the IC50 is over 1000 nM. On to `Cc1ccsc1CC(C)Nc1cc[nH]c(=O)c1-c1nc2cc3c(cc2[nH]1)C(=O)N(CCCN1CCCC1)C3` (centres unmarked), for which the concentration for half-maximal inhibition (IC50) on ALK and on IGF1R was 100 to 250 nM in each case. Turning to `Cc1ccsc1C[C@H](C)Nc1cc[nH]c(=O)c1-c1nc2cc3c(cc2[nH]1)C(=O)N(CCN(C)CCS(C)(=O)=O)C3=O`, the IC50 at ALK was 100 to 250 nM; on IGF1R, over 1000 nM.

With `C[C@@H](Cc1ccco1)Nc1cc[nH]c(=O)c1-c1nc2cc3c(cc2[nH]1)CN(CCN1CCCC1)C3=O`, the concentration for half-maximal inhibition (IC50) at ALK was in the range of 100 to 250 nM; at IGF1R, 250 to 1000 nM. Turning to `CC(Cc1ccsc1)Nc1cc[nH]c(=O)c1-c1nc2cc3c(cc2[nH]1)C(=O)N(CCCN1CCCC1)C3=O` (centres unmarked), the IC50 on ALK lay in the range of 100 to 250 nM.

For `C[C@@H](Cc1sccc1Cl)Nc1cc[nH]c(=O)c1-c1nc2cc3c(cc2[nH]1)C(=O)N(CCN1CCCC1)C3=O`, the IC50 lay in the range of 100 to 250 nM on ALK and 250 to 1000 nM at IGF1R. The corresponding values for `Cc1ccc(CC(C)Nc2cc[nH]c(=O)c2-c2nc3cc4c(cc3[nH]2)C(=O)N(CCCN2CCCC2)C4)s1` (centres unmarked) are over 1000 nM and 100 to 250 nM. Turning to `C[C@@H](Cc1cccs1)Nc1cc[nH]c(=O)c1-c1nc2cc3c(cc2[nH]1)C(=O)N(C1CCN(C)CC1)C3`, the IC50 at ALK lay within 100 to 250 nM; on IGF1R, 10 to 100 nM. The corresponding values for `C[C@H](Cc1cccs1)Nc1cc[nH]c(=O)c1-c1nc2cc3c(c(Cl)c2[nH]1)C(=O)N(C1CCN(C)CC1)C3` are 250 to 1000 nM and 100 to 250 nM. For `Cc1noc(C)c1CC(C)Nc1cc[nH]c(=O)c1-c1nc2cc3c(cc2[nH]1)C(=O)N(CCCN1CCCC1)C3=O` (centres unmarked) the same measures were over 1000 nM and over 1000 nM. For `Cc1ccsc1C[C@H](C)Nc1cc[nH]c(=O)c1-c1nc2cc3c(cc2[nH]1)C(=O)N(CC(C)CN1CCCC1)C3` (some centres unmarked) the same measures were 10 to 100 nM and 250 to 1000 nM. As for `CNCCN1Cc2cc3[nH]c(-c4c(N[C@@H](C)Cc5cc(F)ccc5C)cc[nH]c4=O)nc3cc2C1=O` [drawing 348], the IC50 was 250 to 1000 nM at ALK and 10 to 100 nM on IGF1R. For `C[C@@H](Cc1ccco1)Nc1cc[nH]c(=O)c1-c1nc2cc3c(cc2[nH]1)C(=O)N(CCN1CCCC1)C3=O` the same measures were 100 to 250 nM and over 1000 nM. For `C[C@@H](Cc1sccc1C(F)(F)F)Nc1cc[nH]c(=O)c1-c1nc2cc3c(cc2[nH]1)CN(CCN1CCCC1)C3=O` the same measures were 10 to 100 nM and 250 to 1000 nM. Turning to `C[C@@H](Cc1cc(F)cc(F)c1F)Nc1cc[nH]c(=O)c1-c1nc2cc3c(cc2[nH]1)CN(CCN1CCCC1)C3`, the IC50 at ALK and on IGF1R was 250 to 1000 nM in each case. Regarding `C[C@@H](Cc1cccs1)Nc1cc[nH]c(=O)c1-c1nc2cc3c(cc2[nH]1)C(=O)N(CCCCN1CCCC1)C3`, the IC50 was 100 to 250 nM on ALK and over 1000 nM at IGF1R. The corresponding values for `Cc1noc(C)c1CC(C)Nc1cc[nH]c(=O)c1-c1nc2cc3c(cc2[nH]1)C(=O)N(CCCN1CCCC1)C3` (centres unmarked) are over 1000 nM and over 1000 nM. For `CCN1CCC[C@@H]1CN1Cc2cc3nc(-c4c(N[C@@H](C)Cc5sccc5C)cc[nH]c4=O)[nH]c3cc2C1=O` the same measures were 100 to 250 nM and 250 to 1000 nM.

Regarding `CN1CCC(N2C(=O)c3cc4nc(-c5c(N[C@H](CO)Cc6ccccc6)cc[nH]c5=O)[nH]c4cc3C2=O)CC1`, the concentration for half-maximal inhibition (IC50) at ALK was over 1000 nM.

As for `CCC(Cc1cccs1)Nc1cc[nH]c(=O)c1-c1nc2cc3c(cc2[nH]1)C(=O)N(CCCN1CCCC1)C3=O` (centres unmarked), the IC50 on ALK is 250 to 1000 nM.

Turning to `Cc1ccccc1C[C@H](C)Nc1cc[nH]c(=O)c1-c1nc2cc3c(cc2[nH]1)CN(CCN1CCCC1)C3=O`, the results for the IC50 on ALK and at IGF1R were 10 to 100 nM and 250 to 1000 nM, respectively. The corresponding values for `Cc1ccsc1C[C@H](C)Nc1cc[nH]c(=O)c1-c1nc2cc3c(cc2[nH]1)CN(CCN1CCS(=O)(=O)CC1)C3=O` are 100 to 250 nM and 250 to 1000 nM. For `CCc1ccc(CC(C)Nc2cc[nH]c(=O)c2-c2nc3cc4c(cc3[nH]2)C(=O)N(CCCN2CCCC2)C4)s1` (centres unmarked) the same measures were over 1000 nM and over 1000 nM.

For `Cc1csc(CC(C)Nc2cc[nH]c(=O)c2-c2nc3cc4c(cc3[nH]2)C(=O)N(CCCN2CCCC2)C4)c1` (centres unmarked), the IC50 on ALK and at IGF1R was 250 to 1000 nM in each case. As to `C[C@@H](Cc1cccs1)Nc1cc[nH]c(=O)c1-c1nc2cc3c(cc2[nH]1)C(=O)N(CCN1CCCC1)C3=O`, the IC50 lay in the range of 100 to 250 nM at ALK and 250 to 1000 nM on IGF1R. For `C[C@@H](Cc1cccs1)Nc1cc[nH]c(=O)c1-c1nc2cc3c(cc2[nH]1)C(=O)N(CCCN1CCCC1)C3=O` the same measures were 100 to 250 nM and over 1000 nM. `CC(Cc1cccs1)Nc1cc[nH]c(=O)c1-c1nc2cc3c(cc2[nH]1)CN(CCCN1CCCC1)C3=O` (centres unmarked): the concentration for half-maximal inhibition (IC50) at ALK was in the range of 100 to 250 nM; at IGF1R, 250 to 1000 nM.

For the compound `C[C@H](CN1C(=O)c2cc3nc(-c4c(N[C@@H](C)Cc5sccc5Cl)cc[nH]c4=O)[nH]c3cc2C1=O)N(C)C`, the results for the IC50 at ALK and on IGF1R were 10 to 100 nM and over 1000 nM, respectively. For `C[C@H](Cc1cccs1)Nc1cc[nH]c(=O)c1-c1nc2c(Cl)c3c(cc2[nH]1)C(=O)N(C1CCN(C)CC1)C3` the same measures were over 1000 nM and 250 to 1000 nM. Take `COC[C@H](Cc1ccccc1)Nc1cc[nH]c(=O)c1-c1nc2cc3c(cc2[nH]1)C(=O)N(C1CCN(C)CC1)C3=O`: the IC50 at ALK is over 1000 nM.

For `CCC(Cc1cccs1)Nc1cc[nH]c(=O)c1-c1nc2cc3c(cc2[nH]1)C(=O)N(CCCN1CCCC1)C3` (centres unmarked), at ALK, the IC50 was over 1000 nM.
